pIC50: −log10 of the molar value.
Test system: 935938-334-R-J1-PDC complex spheroid viability
Assay: Anticancer human tumor 935938-334-R-J1-PDC patient-derived small intestine adenocarcinoma cell line growth inhibition [POLQ]
Settings: for pIC50: curve of first compound; for viability, T/C: stronger effect = lower value
Method in brief: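 Complex spheroid viability model combining PDC tumour cells with endothelial (HUVEC) and MSC stromal cells. Novobiocin, ART-558 or RP6685 were tested singly and in combination with standard and investigational anticancer drugs. Each was titrated in half-log steps from near clinical Cmax, or from 10 microM where Cmax was unknown.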

[1] = second compound 0.0316 µM, first compound 0.0316 µM
[2] = second compound 0.0316 µM, first compound 0.1 µM
[3] = second compound 0.0316 µM, first compound 0.316 µM
[4] = second compound 0.0316 µM, first compound 1 µM
[5] = second compound 0.0316 µM, first compound 3.16 µM
[6] = second compound 0.0316 µM, first compound 10 µM
[7] = second compound 0.1 µM, first compound 0.0316 µM
[8] = second compound 0.1 µM, first compound 0.1 µM
[9] = second compound 0.1 µM, first compound 0.316 µM
[10] = second compound 0.1 µM, first compound 1 µM
[11] = second compound 0.1 µM, first compound 3.16 µM
[12] = second compound 0.1 µM, first compound 10 µM
[13] = second compound 0.316 µM, first compound 0.0316 µM
[14] = second compound 0.316 µM, first compound 0.1 µM
[15] = second compound 0.316 µM, first compound 0.316 µM
[16] = second compound 0.316 µM, first compound 1 µM
[17] = second compound 0.316 µM, first compound 3.16 µM
[18] = second compound 0.316 µM, first compound 10 µM
[19] = second compound 1 µM, first compound 0.0316 µM
[20] = second compound 1 µM, first compound 0.1 µM
[21] = second compound 1 µM, first compound 0.316 µM
[22] = second compound 1 µM, first compound 1 µM
[23] = second compound 1 µM, first compound 3.16 µM
[24] = second compound 1 µM, first compound 10 µM
[25] = second compound 3.16 µM, first compound 0.0316 µM
[26] = second compound 3.16 µM, first compound 0.1 µM
[27] = second compound 3.16 µM, first compound 0.316 µM
[28] = second compound 3.16 µM, first compound 1 µM
[29] = second compound 3.16 µM, first compound 3.16 µM
[30] = second compound 3.16 µM, first compound 10 µM
[31] = second compound 10 µM, first compound 0.0316 µM
[32] = second compound 10 µM, first compound 0.1 µM
[33] = second compound 10 µM, first compound 0.316 µM
[34] = second compound 10 µM, first compound 1 µM
[35] = second compound 10 µM, first compound 3.16 µM
[36] = second compound 10 µM, first compound 10 µM
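Also: spheroids exposed to drugs for seven days before viability read.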
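For viability, T/C in this document: 100% = DMSO vehicle control wells.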

Which results are given for `CCc1cc2c(N3CCc4c(cc(Cn5ccnc5)cc4-c4cn(C)nc4C(F)(F)F)C3=O)cc(C)nc2c(OC)n1` + Cc1cccc(N(C)C(=O)C2C(O)CCN2c2nc(C)cc(C(F)(F)F)c2C#N)c1?
pIC50 (second compound 0.0316 µM): < 5.00; pIC50 (second compound 0.1 µM): < 5.00; pIC50 (second compound 0.316 µM): < 5.00; pIC50 (second compound 1 µM): < 5.00; pIC50 (second compound 3.16 µM): < 5.00; pIC50 (second compound 10 µM): < 5.00; viability, T/C [1]: 77.4%; viability, T/C [2]: 59%; viability, T/C [3]: 74%; viability, T/C [4]: 58.9%; viability, T/C [5]: 69.4%; viability, T/C [6]: 56.7%; viability, T/C [7]: 61.9%; viability, T/C [8]: 87%; viability, T/C [9]: 62.8%; viability, T/C [10]: 56.1%; viability, T/C [11]: 72%; viability, T/C [12]: 63%; viability, T/C [13]: 74.7%; viability, T/C [14]: 62.6%; viability, T/C [15]: 62.4%; viability, T/C [16]: 54.8%; viability, T/C [17]: 65.5%; viability, T/C [18]: 51.6%; viability, T/C [19]: 91.2%; viability, T/C [20]: 61.9%; viability, T/C [21]: 55.6%; viability, T/C [22]: 60.9%; viability, T/C [23]: 51.7%; viability, T/C [24]: 53.2%; viability, T/C [25]: 78.3%; viability, T/C [26]: 78.3%; viability, T/C [27]: 71.6%; viability, T/C [28]: 70.7%; viability, T/C [29]: 57.1%; viability, T/C [30]: 54.2%; viability, T/C [31]: 72.7%; viability, T/C [32]: 65.8%; viability, T/C [33]: 58.9%; viability, T/C [34]: 49.5%; viability, T/C [35]: 60.3%; viability, T/C [36]: 50.8%

With `COc1cc2cc(C(=O)CCC(=O)O)sc2cc1OC` + Cc1cccc(N(C)C(=O)C2C(O)CCN2c2nc(C)cc(C(F)(F)F)c2C#N)c1 as the compound, how does the pIC50 (second compound 0.0316 µM) read?
The pIC50 was less than 5.00.

And the pIC50 (second compound 0.1 µM)?
Its pIC50 is less than 5.00.

And the pIC50 (second compound 0.316 µM)?
The pIC50 was less than 5.00.

What about the pIC50 (second compound 1 µM) of the same compound?
Its pIC50 is less than 5.00.

And the pIC50 (second compound 3.16 µM)?
The pIC50 was less than 5.00.

What about the pIC50 (second compound 10 µM) of the same compound?
The pIC50 was less than 5.00.

And the viability, T/C [1]?
The viability, T/C was 116%.

And the viability, T/C [2]?
Its viability, T/C is 84.3%.

And the viability, T/C [3]?
Its viability, T/C is 88.5%.

What about the viability, T/C [4] of the same compound?
Its viability, T/C is 83.9%.

And the viability, T/C [5]?
Its viability, T/C is 85.1%.

And the viability, T/C [6]?
The viability, T/C was 80.8%.

What about the viability, T/C [7] of the same compound?
The viability, T/C was 100%.

What about the viability, T/C [8] of the same compound?
The viability, T/C was 85.6%.

What about the viability, T/C [9] of the same compound?
Its viability, T/C is 92.4%.

And the viability, T/C [10]?
Its viability, T/C is 95.7%.

What about the viability, T/C [11] of the same compound?
The viability, T/C was 62.9%.

What about the viability, T/C [12] of the same compound?
The viability, T/C was 81.9%.

And the viability, T/C [13]?
The viability, T/C was 79.7%.

And the viability, T/C [14]?
Its viability, T/C is 82.5%.

What about the viability, T/C [15] of the same compound?
The viability, T/C was 68.3%.

What about the viability, T/C [16] of the same compound?
Its viability, T/C is 88.9%.

And the viability, T/C [17]?
The viability, T/C was 84.8%.

What about the viability, T/C [18] of the same compound?
The viability, T/C was 93.8%.

And the viability, T/C [19]?
Its viability, T/C is 91.7%.

And the viability, T/C [20]?
The viability, T/C was 96.5%.

And the viability, T/C [21]?
The viability, T/C was 103%.

What about the viability, T/C [22] of the same compound?
Its viability, T/C is 81.1%.

What about the viability, T/C [23] of the same compound?
The viability, T/C was 74%.

What about the viability, T/C [24] of the same compound?
Its viability, T/C is 83.4%.

And the viability, T/C [25]?
The viability, T/C was 82.1%.

What about the viability, T/C [26] of the same compound?
The viability, T/C was 95.6%.

What about the viability, T/C [27] of the same compound?
The viability, T/C was 98.5%.

And the viability, T/C [28]?
Its viability, T/C is 95.9%.

What about the viability, T/C [29] of the same compound?
Its viability, T/C is 98.2%.

What about the viability, T/C [30] of the same compound?
Its viability, T/C is 95.1%.

And the viability, T/C [31]?
The viability, T/C was 135%.

And the viability, T/C [32]?
Its viability, T/C is 75.6%.

What about the viability, T/C [33] of the same compound?
The viability, T/C was 96.2%.

And the viability, T/C [34]?
The viability, T/C was 112%.

What about the viability, T/C [35] of the same compound?
The viability, T/C was 114%.

And the viability, T/C [36]?
The viability, T/C was 105%.

What does the source list for `COc1cccc2c1C(=O)c1c(O)c3c(c(O)c1C2=O)CC(O)(C(=O)CO)CC3OC1CC(N)C(O)C(C)O1` (stereo unspecified) + Nc1ccc(C#CCN(C(=O)Cc2ncc(C(F)(F)F)cc2C(F)(F)F)c2ccc(F)cc2)nn1?
pIC50 (second compound 0.0316 µM): 7.15; pIC50 (second compound 0.1 µM): 7.06; pIC50 (second compound 0.316 µM): > 7.50; pIC50 (second compound 1 µM): 7.26; pIC50 (second compound 3.16 µM): 7.45; pIC50 (second compound 10 µM): 7.11; viability, T/C [1]: 67.3%; viability, T/C [2]: 39.4%; viability, T/C [3]: 27.4%; viability, T/C [4]: 22.2%; viability, T/C [5]: 8.04%; viability, T/C [6]: 3.61%; viability, T/C [7]: 69.9%; viability, T/C [8]: 45.5%; viability, T/C [9]: 31.3%; viability, T/C [10]: 19.6%; viability, T/C [11]: 7.02%; viability, T/C [12]: 3.54%; viability, T/C [13]: 49.8%; viability, T/C [14]: 32.1%; viability, T/C [15]: 30.9%; viability, T/C [16]: 23.7%; viability, T/C [17]: 8.73%; viability, T/C [18]: 3.32%; viability, T/C [19]: 58.9%; viability, T/C [20]: 38.8%; viability, T/C [21]: 30.3%; viability, T/C [22]: 18.8%; viability, T/C [23]: 9.11%; viability, T/C [24]: 4.86%; viability, T/C [25]: 52.6%; viability, T/C [26]: 35.4%; viability, T/C [27]: 27.9%; viability, T/C [28]: 20.3%; viability, T/C [29]: 5.88%; viability, T/C [30]: 5.57%; viability, T/C [31]: 68.1%; viability, T/C [32]: 38.4%; viability, T/C [33]: 38%; viability, T/C [34]: 18.9%; viability, T/C [35]: 5.97%; viability, T/C [36]: 6.61%

From PubChem BioAssay AID1963829 (Molecular Pharmacology Branch, DTP, NCI, 2024)
